Results reported in patent publication US20090312288A1 (TAKEDA PHARMACEUTICAL COMPANY LIMITED, priority 2008, published 2009).

Molecular target: Aurora B/INCENP (Homo sapiens, UniProt Q96GD4)
Assay: Determination of inhibition of AIK: Aurora B/INCENP direct fluorescence polarization (IMAP) assay
Format: biochemical
Settings: 10 uM ATP, 0.8 nM Aurora B/INCENP; values given as bins; read-out: IC50 of Exemplified Compounds Against AIK B

Aurora B/INCENP, sequence (Q96GD4 whole entry): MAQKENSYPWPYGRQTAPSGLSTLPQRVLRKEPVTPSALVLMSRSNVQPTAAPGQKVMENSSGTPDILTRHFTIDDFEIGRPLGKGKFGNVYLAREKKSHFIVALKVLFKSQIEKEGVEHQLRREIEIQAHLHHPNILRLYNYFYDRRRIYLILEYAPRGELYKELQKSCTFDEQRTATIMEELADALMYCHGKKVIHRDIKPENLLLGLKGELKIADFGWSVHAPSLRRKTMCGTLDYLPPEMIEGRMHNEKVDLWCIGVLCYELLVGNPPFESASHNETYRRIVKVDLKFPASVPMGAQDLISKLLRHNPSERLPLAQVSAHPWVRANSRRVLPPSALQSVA
Aurora B/INCENP, sequence (Q9NQS7 whole entry partner): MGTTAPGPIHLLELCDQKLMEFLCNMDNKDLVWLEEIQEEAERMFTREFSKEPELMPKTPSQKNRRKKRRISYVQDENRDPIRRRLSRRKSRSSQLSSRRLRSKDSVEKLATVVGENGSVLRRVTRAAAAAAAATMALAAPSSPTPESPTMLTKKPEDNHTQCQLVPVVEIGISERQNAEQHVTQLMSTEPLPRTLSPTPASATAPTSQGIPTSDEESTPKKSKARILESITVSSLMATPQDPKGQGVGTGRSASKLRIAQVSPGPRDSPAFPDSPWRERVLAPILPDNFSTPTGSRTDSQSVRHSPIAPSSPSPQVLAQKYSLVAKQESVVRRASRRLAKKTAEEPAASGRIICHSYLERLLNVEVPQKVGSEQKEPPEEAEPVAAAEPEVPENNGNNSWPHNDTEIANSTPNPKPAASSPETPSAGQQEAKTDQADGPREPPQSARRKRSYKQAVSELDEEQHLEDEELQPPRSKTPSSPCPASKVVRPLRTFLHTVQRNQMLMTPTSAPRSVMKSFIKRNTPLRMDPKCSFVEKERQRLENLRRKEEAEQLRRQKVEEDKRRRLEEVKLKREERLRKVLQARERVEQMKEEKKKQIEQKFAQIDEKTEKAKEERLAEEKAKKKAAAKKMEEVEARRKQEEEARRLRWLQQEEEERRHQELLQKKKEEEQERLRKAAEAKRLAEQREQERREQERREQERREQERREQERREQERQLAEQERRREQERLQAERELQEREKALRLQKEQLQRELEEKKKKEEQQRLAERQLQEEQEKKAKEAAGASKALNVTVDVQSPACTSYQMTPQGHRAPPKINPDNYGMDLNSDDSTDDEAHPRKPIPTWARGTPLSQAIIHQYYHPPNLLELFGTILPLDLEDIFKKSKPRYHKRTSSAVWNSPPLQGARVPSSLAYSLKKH

SMILES | IC50
Cc1cnc2[nH]c3c(OC[C@@H]4CN(CCO)CCO4)ccc(-c4cccc(S(=O)(=O)C5CC5)c4)c3c2c1 [Compound 363, (S)-2-(2-((5-(3-(cyclopropylsulfonyl)phenyl)-3-methyl-9H-pyrido[2,3-b]indol-8-yloxy)methyl)morpholino)ethanol] | 4 to 5.5 nM
Cc1cnc2[nH]c3c(OC[C@@H]4CN(C)CCO4)ccc(-c4cccc(S(=O)(=O)C5CC5)c4)c3c2c1 [Compound 370, (S)-2-((5-(3-(cyclopropylsulfonyl)phenyl)-3-methyl-9H-pyrido[2,3-b]indol-8-yloxy)methyl)-4-methylmorpholine] | 4 to 5.5 nM
Cc1cnc2[nH]c3c(OC[C@H]4CN(C)CCO4)ccc(-c4cccc(S(=O)(=O)C5CC5)c4)c3c2c1 [Compound 371, (R)-2-((5-(3-(cyclopropylsulfonyl)phenyl)-3-methyl-9H-pyrido[2,3-b]indol-8-yloxy)methyl)-4-methylmorpholine] | < 4 nM
Cc1cnc2[nH]c3c(OC[C@@H]4CN(CCOP(=O)(O)O)CCO4)ccc(-c4cccc(S(=O)(=O)C5CC5)c4)c3c2c1 [Compound 373, (S)-2-(2-((5-(3-(cyclopropylsulfonyl)phenyl)-3-methyl-9H-pyrido[2,3-b]indol-8-yloxy)methyl)morpholino)ethyl dihydrogen phosphate] | 4 to 5.5 nM
Cc1cnc2[nH]c3c(OC[C@H]4CN(CCOP(=O)(O)O)CCO4)ccc(-c4cccc(S(=O)(=O)C5CC5)c4)c3c2c1 [Compound 375, (R)-2-(2-((5-(3-(cyclopropylsulfonyl)phenyl)-3-methyl-9H-pyrido[2,3-b]indol-8-yloxy)methyl)morpholino)ethyl dihydrogen phosphate] | < 4 nM
Cc1cnc2[nH]c3c(OC[C@H](O)CN4CCOCC4)ccc(-c4cccc(S(=O)(=O)C5CC5)c4)c3c2c1 [Compound 380, (R)-1-(5-(3-(cyclopropylsulfonyl)phenyl)-3-methyl-9H-pyrido[2,3-b]indol-8-yloxy)-3-morpholinopropan-2-ol] | 4 to 5.5 nM
Cc1cnc2[nH]c3c(OC[C@@H](CN4CCOCC4)OP(=O)(O)O)ccc(-c4cccc(S(=O)(=O)C5CC5)c4)c3c2c1 [Compound 382, (R)-1-(5-(3-(cyclopropylsulfonyl)phenyl)-3-methyl-9H-pyrido[2,3-b]indol-8-yloxy)-3-morpholinopropan-2-yl dihydrogen phosphate] | < 4 nM
CCS(=O)(=O)c1cccc(-c2ccc(O[C@H](C)CCO)c3[nH]c4ncc(C)cc4c23)c1 [Compound 388, (R)-3-(5-(3-(ethylsulfonyl)phenyl)-3-methyl-9H-pyrido[2,3-b]indol-8-yloxy)butan-1-ol] | 4 to 5.5 nM
CCS(=O)(=O)c1cccc(-c2ccc(O[C@@H](C)CCO)c3[nH]c4ncc(C)cc4c23)c1 [Compound 389, (S)-3-(5-(3-(ethylsulfonyl)phenyl)-3-methyl-9H-pyrido[2,3-b]indol-8-yloxy)butan-1-ol] | 4 to 5.5 nM
CCS(=O)(=O)c1cccc(-c2ccc(O[C@@H](C)COP(=O)(O)O)c3[nH]c4ncc(C)cc4c23)c1 [Compound 391, (S)-2-(5-(3-(ethylsulfonyl)phenyl)-3-methyl-9H-pyrido[2,3-b]indol-8-yloxy)propyl dihydrogen phosphate] | 4 to 5.5 nM
Cc1cnc2[nH]c3c(OC[C@H](CO)CN(C)C)ccc(-c4cccc(S(=O)(=O)C5CC5)c4)c3c2c1 [Compound 401, (S)-3-(5-(3-(cyclopropylsulfonyl)phenyl)-3-methyl-9H-pyrido[2,3-b]indol-8-yloxy)-2-((dimethylamino)methyl)propan-1-ol] | < 4 nM
Cc1cnc2[nH]c3c(OC[C@@H](CO)CN(C)C)ccc(-c4cccc(S(=O)(=O)C5CC5)c4)c3c2c1 [Compound 402, (R)-3-(5-(3-(cyclopropylsulfonyl)phenyl)-3-methyl-9H-pyrido[2,3-b]indol-8-yloxy)-2-((dimethylamino)methyl)propan-1-ol] | < 4 nM
Cc1cnc2[nH]c3c(O)ccc(-c4cccc(S(=O)(=O)C5CC5)c4)c3c2c1 [Compound 404, 5-(3-(cyclopropylsulfonyl)phenyl)-3-methyl-9H-pyrido[2,3-b]indol-8-ol] | < 4 nM
CCNCCCOc1ccc(-c2cccc(S(=O)(=O)C3CC3)c2)c2c1[nH]c1ncc(C)cc12 [Compound 407, 3-(5-(3-(cyclopropylsulfonyl)phenyl)-3-methyl-9H-pyrido[2,3-b]indol-8-yloxy)-N-ethylpropan-1-amine] | < 4 nM
Cc1cnc2[nH]c3c(OCCCNCCO)ccc(-c4cccc(S(=O)(=O)C5CC5)c4)c3c2c1 [Compound 408, 2-(3-(5-(3-(cyclopropylsulfonyl)phenyl)-3-methyl-9H-pyrido[2,3-b]indol-8-yloxy)propylamino)ethanol] | < 4 nM
CCS(=O)(=O)c1cccc(-c2ccc(OCCCn3cncn3)c3[nH]c4ncc(C)cc4c23)c1 [Compound 409, 8-(3-(1H-1,2,4-triazol-1-yl)propoxy)-5-(3-(ethylsulfonyl)phenyl)-3-methyl-9H-pyrido[2,3-b]indole] | > 13 nM
CCS(=O)(=O)c1cccc(-c2ccc(OCc3ccncc3)c3[nH]c4ncc(C)cc4c23)c1 [Compound 411, 5-(3-(ethylsulfonyl)phenyl)-3-methyl-8-(pyridin-4-ylmethoxy)-9H-pyrido[2,3-b]indole] | 4 to 5.5 nM
CCS(=O)(=O)c1cccc(-c2ccc(OCCCc3cccnc3)c3[nH]c4ncc(C)cc4c23)c1 [Compound 414, 5-(3-(ethylsulfonyl)phenyl)-3-methyl-8-(3-(pyridin-3-yl)propoxy)-9H-pyrido[2,3-b]indole] | 8.6 to 13 nM
CCS(=O)(=O)c1cccc(-c2ccc(OCCCn3cnnc3)c3[nH]c4ncc(C)cc4c23)c1 [Compound 416, 8-(3-(4H-1,2,4-triazol-4-yl)propoxy)-5-(3-(ethylsulfonyl)phenyl)-3-methyl-9H-pyrido[2,3-b]indole] | 5.6 to 8.5 nM
CCS(=O)(=O)c1cccc(-c2ccc(OCCCn3cccc3)c3[nH]c4ncc(C)cc4c23)c1 [Compound 421, 8-(3-(1H-pyrrol-1-yl)propoxy)-5-(3-(ethylsulfonyl)phenyl)-3-methyl-9H-pyrido[2,3-b]indole] | > 13 nM
CCS(=O)(=O)c1cccc(-c2ccc(OCC3CCCCO3)c3[nH]c4ncc(C)cc4c23)c1 (stereo not shown) [Compound 423, 5-(3-(ethylsulfonyl)phenyl)-3-methyl-8-((tetrahydro-2H-pyran-2-yl)methoxy)-9H-pyrido[2,3-b]indole] | 8.6 to 13 nM
CCN(CC)CCCOc1ccc(-c2cccc(S(=O)(=O)CC)c2)c2c1[nH]c1ncc(C)cc12 [Compound 425, N,N-diethyl-3-(5-(3-(ethylsulfonyl)phenyl)-3-methyl-9H-pyrido[2,3-b]indol-8-yloxy)propan-1-amine] | 8.6 to 13 nM
CCS(=O)(=O)c1cccc(-c2ccc(OCCCOC)c3[nH]c4ncc(C)cc4c23)c1 [Compound 427, 5-(3-(ethylsulfonyl)phenyl)-8-(3-methoxypropoxy)-3-methyl-9H-pyrido[2,3-b]indole] | 5.6 to 8.5 nM
CCS(=O)(=O)c1cccc(-c2ccc(OCc3cccc(F)n3)c3[nH]c4ncc(C)cc4c23)c1 [Compound 433, 5-(3-(ethylsulfonyl)phenyl)-8-((6-fluoropyridin-2-yl)methoxy)-3-methyl-9H-pyrido[2,3-b]indole] | < 4 nM
CCS(=O)(=O)c1cccc(-c2ccc(OCCCN3CCOCC3)c3[nH]c4ncc(C)cc4c23)c1 [Compound 440, 4-(3-(5-(3-(ethylsulfonyl)phenyl)-3-methyl-9H-pyrido[2,3-b]indol-8-yloxy)propyl)morpholine] | > 13 nM
